Experimental data taken from patent publication US10806794B2, “Protease inhibitors having enhanced features” (priority 2008, dated 2020).
In brackets after ≈: the same amount, converted by molar mass. Several values for one entry are separate records, joined by “and”; a condition that tells them apart may be missing. Equal values may be shown once.

Tests used:
HIV-1RF [1] = experiment: Pre-exposure assay: CEM-SS cells treated before HIV-1RF infection, cell viability; format: cell-based; settings: for EC50: Human immunodeficiency virus 1, CEM-SS, read-out: EC50
Procedure: (§1) The effects of pre- and post-infection PI treatment on CEM-SS toxicity were assessed. […] Cell toxicity was monitored six days after infection using XTT reagent. In the post-exposure assay, test compounds were added to cells 0, 24, 48, or 72 h after HIV-1 infection, and cell viability was measured six days post-infection.

HIV-1RF [2] = experiment: Post-exposure assay: compounds added after HIV-1 infection of CEM-SS cells, cell viability; format: cell-based; settings: Human immunodeficiency virus 1, CEM-SS, read-out: EC50
Procedure: as §1

CEM-SS cells = experiment: Post-exposure assay: toxicity in CEM-SS cells; settings: human
Procedure: as §1

HIV-1RF [3] = experiment: p24 levels after single high MOI HIV-1RF infection of CEM-SS cells, time of addition; format: cell-based
Procedure: The cytoprotective effect against HIV of the PEG-protease inhibitor conjugates was evaluated during a single round of high multiplicity of infection (“MOI”) HIV-1 infection in CEM-SS cells. CEM-SS cells were incubated for one hour with a single high MOI dose of HIV-1RF. Cells were washed to remove free virus, then test compounds were added to cells at 0, 2, 4, 6, 8, 16, or 24 hours after HIV-1 infection. To monitor viral replication, cell supernatants were analyzed at 30 hours post-infection for levels of the HIV capsid protein p24 (FIG. 1). […] Nevirapine inhibited viral replication at 1 μM when added to cells up to four hours post-infection, and at 10 μM when added up to eight hours post-infection.

HIV-1 virions = experiment: Infectivity of HIV-1 virions from treated cells on naive CEM-SS cells; format: cell-based
Procedure: In concert with p24 analysis, cell supernatants collected from cells exposed to test compounds at 8, 16, or 24 hours post-infection were used to infect naïve CEM-SS cells. Cell viability was measured six days post-infection as a measure of virus infectivity (Table 5).

HIV-1RF [4] = experiment: Anti-HIV cytoprotection in CEM-SS cells infected with HIV-1RF (XTT); format: cell-based; settings: six days, XTT; read-out: CEM-SS/HIV-1RF EC50 ± SD
Procedure: To evaluate whether conjugated protease inhibitors retain the ability to protect against HIV-1 infection, CEM-SS cells infected with the RF strain of HIV-1 were treated with test compounds for six days, and then cell viability was monitored using the tetrazolium dye XTT. […] A value for Therapeutic Index (TI) was calculated as TC50/EC50.

HIV-1 HT/92/599 = experiment: HIV-1 reverse transcriptase activity after infection of fresh human PBMCs; format: cell-based; settings: read-out: PBMC/HIV-1HT/92/599 EC50 ± SD; seven days, reverse transcriptase activity
Procedure: (§2) Fresh human peripheral blood mononuclear cells (PBMCs) obtained from a commercial source were purified following centrifugation using a Ficoll-Hypaque density gradient. Viable cells were induced to proliferate in the presence of PHA-P and recombinant human IL-2 for 72 hours. […] Cell supernatant containing HIV-1 viral was incubated for 90 minutes at 37° C. with a reaction mixture containing EGTA, Triton X-100, Tris (pH 7.4), DTT, MgCl2, poly rA, oligo dT, and tritiated thymidine triphosphate (TTP). Incorporation of TTP into DNA was monitored by spotting the reaction mixture onto a DEAE filter mat, followed by washes with 5% phosphate buffer, distilled water, and 70% ethanol, and subsequent drying of the mat. Radioactivity was measured using a Wallac 1450 Microbeta Trilux liquid scintillation counter using Opti-Fluor O. Test compound-associated toxicity was measured in PBMCs cultured for seven days in the absence of virus using XTT reagent. […] TI was calculated as TC50/EC50.

PBMCs = experiment: Toxicity in PBMCs cultured without virus (XTT); settings: seven days, absence of virus, XTT
Procedure: as §2, with “mat.” for “mat. Radioactivity was measured using a Wallac 1450 Microbeta Trilux liquid scintillation counter using Opti-Fluor O. Test compound-associated toxicity was measured in PBMCs cultured for seven days in the absence of virus using XTT reagent.”

Caco-2 cells = experiment: Bi-directional permeability in Caco-2 monolayers; settings: Caco-2 monolayers
Procedure: Absorption properties of various compounds were measured using bi-directional permeability assays in Caco-2 cells. […] The efflux ratio is calculated as the ratio of the Papp(B→A)/Papp(A→B).

[5] = Metabolic stability in human liver microsomes; settings: human liver microsomes, 3 μM
Procedure: The human liver microsome-mediated biotransformation of PEG-PI compounds was determined by monitoring the loss of the substrate as a function of time. […] Test compounds (3 μM final concentration) were preincubated with pooled (male and female) human liver microsomes (0.5 mg/mL final protein concentration) in buffer (0.1M phosphate buffer, pH 7.4) at 37° C. Reactions were initiated by the addition of NADPH (1 mM final concentration), and allowed to continue for 0, 5, 15, 30, and 45 minutes. […] Sample supernatants are analyzed by liquid chromatography-tandem mass spectrometry.

human plasma proteins = experiment: Plasma protein binding by equilibrium dialysis, human plasma; format: in vitro ADME; settings: human plasma, 5 μM, fraction unbound
Procedure: In assays to estimate binding of test compounds to plasma proteins, test compound solutions (5 μM) are prepared in buffer and species-specific plasma (final DMSO concentration 0.5%). The plasma-containing solution is added to one side of the membrane of an equilibrium dialysis system, and the plasma-free is added to the other side. Dialysis was allowed to reach equilibrium by incubation for two hours at 37° C. The concentration of compound on both sides of the membrane was measured using LC-MS/MS.

[6] = tested on: human liver microsomal proteins; experiment: Microsomal protein binding by equilibrium dialysis; format: in vitro ADME; settings: human liver microsomes, 3 μM, fraction unbound
Procedure: PEGylated protease inhibitors were evaluated for their propensity to be bound by proteins in normal human plasma or in human liver microsome preparations using equilibrium dialysis analysis. For microsomal protein binding, test compound (final concentration=3 μM) was diluted into either buffer alone or buffer containing human liver microsomes. The protein-free and microsome-containing solutions were then added to either side of an equilibrium dialysis system and allowed to reach equilibrium at 37° C. The concentration of compound on both sides of the membrane at equilibrium was quantified by LC-MS/MS, and the fraction of compound that remains unbound (Fu) is calculated.

[7] = drug addition 0 h post-infection
[8] = drug addition 24 h post-infection
[9] = drug addition 48 h post-infection
[10] = drug addition 72 h post-infection

COc1cc(-c2ccc(/N=N/c3ccc4c(S(=O)(=O)O)cc(S(=O)(=O)O)c(N)c4c3O)c(OC)c2)ccc1/N=N/c1ccc2c(S(=O)(=O)O)cc(S(=O)(=O)O)c(N)c2c1O [Chicago Sky Blue]
EC50 (HIV-1RF [1]; exposure 2 h pre-infection): > 10 µg/mL | EC50 (HIV-1RF [1]; exposure 8 h pre-infection): > 10 µg/mL | EC50 (HIV-1RF [1]; exposure 24 h pre-infection): > 10 µg/mL | antiviral activity after pre-treatment of cells (HIV-1RF [1]; concentrations up to 10 μg/mL): did not demonstrate antiviral activity | EC50 (HIV-1RF [2]; [7]): 1.84 µg/mL | EC50 (HIV-1RF [2]; [8]): > 10 µg/mL | EC50 (HIV-1RF [2]; [9]): > 10 µg/mL | EC50 (HIV-1RF [2]; [10]): > 10 µg/mL | TC50 (CEM-SS cells; 3 days): 5.6 µg/mL (≈ 6.19 µM) | TC50 (CEM-SS cells; 4 days): 5.5 µg/mL (≈ 6.08 µM) | TC50 (CEM-SS cells; 5 days): 4.9 µg/mL (≈ 5.42 µM) | TC50 (CEM-SS cells; 6 days): 8.2 µg/mL (≈ 9.06 µM) | effect on p24 levels (HIV-1RF [3]; added at any time after infection, even at 50 μg/mL): did not affect p24 levels | Percent Infectivity of HIV-1 Virions in comparison to virus-alone control (HIV-1 virions; 0.5 μg/mL, added 8 h post-infection): 100.0% | Percent Infectivity of HIV-1 Virions in comparison to virus-alone control (HIV-1 virions; 0.5 μg/mL, added 16 h post-infection): 177.8% | Percent Infectivity of HIV-1 Virions in comparison to virus-alone control (HIV-1 virions; 0.5 μg/mL, added 24 h post-infection): 266.4% | Percent Infectivity of HIV-1 Virions in comparison to virus-alone control (HIV-1 virions; 5 μg/mL, added 8 h post-infection): 100.0% | Percent Infectivity of HIV-1 Virions in comparison to virus-alone control (HIV-1 virions; 5 μg/mL, added 16 h post-infection): 331.2% | Percent Infectivity of HIV-1 Virions in comparison to virus-alone control (HIV-1 virions; 5 μg/mL, added 24 h post-infection): 100.0% | Percent Infectivity of HIV-1 Virions in comparison to virus-alone control (HIV-1 virions; 50 μg/mL, added 8 h post-infection): 100.0% | Percent Infectivity of HIV-1 Virions in comparison to virus-alone control (HIV-1 virions; 50 μg/mL, added 16 h post-infection): 562.3% | Percent Infectivity of HIV-1 Virions in comparison to virus-alone control (HIV-1 virions; 50 μg/mL, added 24 h post-infection): 100.0%

CC(C)c1nc(CN(C)C(=O)N[C@H](C(=O)N[C@@H](Cc2ccccc2)C[C@H](O)[C@H](Cc2ccccc2)NC(=O)OCc2cncs2)C(C)C)cs1 [Ritonavir]
EC50 (HIV-1RF [1]; exposure 2 h pre-infection): 720 nM | EC50 (HIV-1RF [1]; exposure 8 h pre-infection): 750 nM | EC50 (HIV-1RF [1]; exposure 24 h pre-infection): 680 nM | EC50 values after pre-treatment of cells (HIV-1RF [1]; in words): sub-micromolar | EC50 (HIV-1RF [2]; [7]): 40 nM | EC50 (HIV-1RF [2]; [8]): 30 nM | EC50 (HIV-1RF [2]; [9]): 70 nM | EC50 (HIV-1RF [2]; [10]): 260 nM | time of addition up to which antiviral activity (reduced p24) was seen (HIV-1RF [3]; 0.1 μM): up to six | time of addition up to which antiviral activity (reduced p24) was seen (HIV-1RF [3]; 1 μM): up to 24 hours post-infection | Percent Infectivity of HIV-1 Virions in comparison to virus-alone control (HIV-1 virions; 0.01 μM, added 8 h post-infection): 42.9% | Percent Infectivity of HIV-1 Virions in comparison to virus-alone control (HIV-1 virions; 0.01 μM, added 16 h post-infection): 331.2% | Percent Infectivity of HIV-1 Virions in comparison to virus-alone control (HIV-1 virions; 0.01 μM, added 24 h post-infection): 100.0% | Percent Infectivity of HIV-1 Virions in comparison to virus-alone control (HIV-1 virions; 0.1 μM, added 8 h post-infection): 1.0% | Percent Infectivity of HIV-1 Virions in comparison to virus-alone control (HIV-1 virions; 0.1 μM, added 16 h post-infection): 3.7% | Percent Infectivity of HIV-1 Virions in comparison to virus-alone control (HIV-1 virions; 0.1 μM, added 24 h post-infection): 26.6% | Percent Infectivity of HIV-1 Virions in comparison to virus-alone control (HIV-1 virions; 1 μM, added 8 h post-infection): 0.1% | Percent Infectivity of HIV-1 Virions in comparison to virus-alone control (HIV-1 virions; 1 μM, added 16 h post-infection): 0.1% | Percent Infectivity of HIV-1 Virions in comparison to virus-alone control (HIV-1 virions; 1 μM, added 24 h post-infection): 0.1%

COCCOCCOCCOCCOCCOCCOCCOc1ccc(C[C@H](NC(=O)O[C@H]2CO[C@H]3OCC[C@H]32)C(O)CN(CC(C)C)S(=O)(=O)c2ccc(N)cc2)cc1 (some centres unmarked) [mPEG7-O-Darunavir]
EC50 (HIV-1RF [4]): 47 nM and 76 nM | EC50 (HIV-1 HT/92/599): 250 ± 27 nM | PBMC TC50 ± SD (PBMCs): >200000 nM | Efflux ratio (B→A/A→B) (Caco-2 cells): 33 | A→B, ×10^−6 (Caco-2 cells; apical to basolateral): 0.19 cm/s | CLint ± SEM [5]: 113 ± 8.87 μL/min/mg protein | t1/2 [5]: 12.2 min | Plasma Protein Binding Fu ± SD (human plasma proteins): 0.314 ± 0.0116 | Microsomal Protein Binding Fu ± SD [6]: 0.84 ± 0.0131
